Assay results: patent publication US20220117867A1, “ANTIMICROBIAL ACTIVITY OF FATTY ACID ESTERS AND COMBINATIONS THEREOF” (SYMRISE AG, priority 2019, published 2022)
Values after ≈ are worked out from the molar mass of the structure shown. Like-named read-outs stand apart in the source and are kept apart here. Each block holds one compound with its values, some of them ahead of it.

What was measured:
Format in all cases: cell-based
Corynebacterium xerosis [1] = assay: Minimum Inhibitory Concentration (MIC) Method A
Protocol: A) Minimum Inhibitory Concentration (MIC) Method A The MIC test is a test on growth inhibition. Estimation of Minimum Inhibitory Concentration (MIC) is executed in 96 well plates. Through the comparison of bacterial growth curves with positive and negative controls via optical density (OD), different concentrations of given test substances are evaluated. Bacteria are cultivated under adjusted conditions based on information of the German Collection of Microorganisms and Cell Cultures (DSMZ) and stored in 50% Glycerol prior to use. Afterwards, the following method was applied: Adding growth medium (according to microorganism) to each well of the microplate. Adding the test-substances in different concentrations, positive controls (water controls only with medium) and negative controls (benchmarks according to organism). Adding the microorganism in a concentration of 10^6 CFU/ml (CFU=colony forming units). Incubation of the microplates at appropriate conditions. Aerobic microorganism: optical density is continuously measured (microplate reader) during incubation. Anaerobic microorganism: incubation in an anaerobic chamber, measurement of the optical density at the end of the incubation, comparison of the results with positive and negative controls. According to resulting growth curves, substance concentrations are labelled either as inhibiting or normal growth and MIC is defined as the lowest concentration where a clear inhibition is visible. Experiments at concentration limits (highest concentration labelled as growth and lowest concentration labelled as inhibiting) are performed at least twice.

Aspergillus brasiliensis = assay: Minimum Inhibitory Concentration (MIC) Method A
Protocol: (§1) A) Minimum Inhibitory Concentration (MIC) Method A
(§2) The MIC test is a test on growth inhibition. Estimation of Minimum Inhibitory Concentration (MIC) is executed in 96 well plates. Through the comparison of bacterial growth curves with positive and negative controls via optical density (OD), different concentrations of given test substances are evaluated.
(§3) Bacteria are cultivated under adjusted conditions based on information of the German Collection of Microorganisms and Cell Cultures (DSMZ) and stored in 50% Glycerol prior to use. Afterwards, the following method was applied:
(§4) Adding growth medium (according to microorganism) to each well of the microplate.
(§5) Adding the test-substances in different concentrations, positive controls (water controls only with medium) and negative controls (benchmarks according to organism).
(§6) Adding the microorganism in a concentration of 10^6 CFU/ml (CFU=colony forming units). Incubation of the microplates at appropriate conditions.
(§7) Aerobic microorganism: optical density is continuously measured (microplate reader) during incubation.
(§8) According to resulting growth curves, substance concentrations are labelled either as inhibiting or normal growth and MIC is defined as the lowest concentration where a clear inhibition is visible. Experiments at concentration limits (highest concentration labelled as growth and lowest concentration labelled as inhibiting) are performed at least twice.

Staphylococcus aureus = assay: Minimum Inhibitory Concentration (MIC) Method A
Protocol: as §1, §2, §3, §4, §5, §6, §7, §8

[2] = system: Staphylococcus epidermidis; assay: Minimum Inhibitory Concentration (MIC) Method A
Protocol: as §1, §2, §3, §4, §5, §6, §7, §8

Corynebacterium xerosis [3] = assay: Minimum Inhibitory Concentration (MIC) Method B, DIN 58940; Synergy Index according to Kull; conditions: Method B (Examples 3, 5, 6), C. xerosis, single substance
Protocol: B) Minimum Inhibitory Concentration (MIC) Method B
5 ml of the appropriate dilution of the test product is mixed with 0.1 ml of test suspension and mixed well. After the required action times, the mixture was mixed again. Each 0.1 ml were removed and placed in 5 ml of CSL-bouillon without neutralizing agents.
In order to calculate the synergy index with MIC values, the Kull equation (I) was used as follows:
SI=(MICmixture×PA)/MICA+(MICmixture×PB)/MICB (I)

Escherichia coli = assay: Minimum Inhibitory Concentration (MIC) Method A
Protocol: as §1, §2, §3, §4, §5, §6, §7, §8

MIC (Corynebacterium xerosis [1]; read-out: MIC): 250 µg/mL (≈ 1030 µM)
MIC (Aspergillus brasiliensis; read-out: MIC): 500 µg/mL (≈ 2060 µM)
MIC (Staphylococcus aureus; read-out: MIC): 500 µg/mL (≈ 2060 µM)
MIC ([2]; read-out: MIC): 64 µg/mL (≈ 264 µM)
Structure (SMILES): C=CCCCCCCCCC(=O)OCCCO [3-hydroxypropyl undecylenate]

MIC (Corynebacterium xerosis [1]): low
MIC (Corynebacterium xerosis [1]; read-out: MIC): 250 µg/mL (≈ 968 µM)
Structure (SMILES): C=CCCCCCCCCC(=O)OCC(O)CO (centres unmarked) [glyceryl monoundecylenate]

MIC (Corynebacterium xerosis [3]): 16 µg/mL
Structure (SMILES): CC(C)=CCCC(C)=CCCC(C)=CCO [Farnesol]

MIC (Aspergillus brasiliensis): 2500 ppm
MIC (Escherichia coli): 2500 ppm
MIC (Staphylococcus aureus): 1000 ppm
MIC [2]: 1000 ppm
Structure (SMILES): CC(C)(O)CCc1ccccc1 [Dimethyl Phenylbutanol, reference compound]
